{
  "source": "ChEMBL document CHEMBL5321285",
  "about": "(J Med Chem, 2023)",
  "key": {"[1]": {"assay": "Cmax in Wistar rat at 10 mg/kg, po by UPLC-MS/MS analysis", "type": "ADME, organism-based", "parameters": "dose 10 mg/kg, route po", "settings": "in vivo"}, "Homo sapiens": {"species": "Homo sapiens", "assay": "Selectivity ratio of Ki for displacement of [3H]-(+)-pentazocine from human sigma1 receptor transfected in HEK293 cell membranes assessed as inhibition constant to Ki for displacement of [3H]-1,3-di-O-tolylguanidine from human sigma 2 receptor/TMEM97 transfected in sigma 1 receptor knockout HEK293 cell membranes assessed as inhibition constant"}, "Neuron": {"tested_on": "Neuron", "assay": "Neuroprotective activity against MPP+ induced rat neurons at 10 uM pretreated with compond for 1 hr followed by MPP+ addition and measured after 48 hrs", "type": "functional, cell-based", "settings": "time 49.0 hrs"}, "[2]": {"assay": "Metabolic stability in mouse liver microsome assessed as parent compound remaining at 1 uM measured after 1 hr in presence of NADPH regenerating system by UPLC-MS/MS analysis", "type": "ADME", "settings": "liver microsomes, read-out: Stability"}, "[3]": {"assay": "Apparent permeability across apical to basolateral side in human Caco-2 cells incubated for 2 hrs by UPLC-MS/MS analysis", "type": "ADME, cell-based"}, "Rattus norvegicus": {"tested_on": "Rattus norvegicus", "assay": "Anti-alzheimer activity against amyloid beta peptide-induced cognitive impairment in Wistar rat model at 10 mg/kg, po measured for 10 days", "type": "functional, organism-based", "settings": "time 10.0 day"}, "[4]": {"assay": "Efflux ratio of apparent permeability across […] in human Caco-2 cells", "type": "ADME, cell-based"}, "Cytochrome P450 1A2": {"target": "T1, Cytochrome P450 1A2 (Homo sapiens, UniProt P05177)", "T1 sequence (P05177 whole entry)": "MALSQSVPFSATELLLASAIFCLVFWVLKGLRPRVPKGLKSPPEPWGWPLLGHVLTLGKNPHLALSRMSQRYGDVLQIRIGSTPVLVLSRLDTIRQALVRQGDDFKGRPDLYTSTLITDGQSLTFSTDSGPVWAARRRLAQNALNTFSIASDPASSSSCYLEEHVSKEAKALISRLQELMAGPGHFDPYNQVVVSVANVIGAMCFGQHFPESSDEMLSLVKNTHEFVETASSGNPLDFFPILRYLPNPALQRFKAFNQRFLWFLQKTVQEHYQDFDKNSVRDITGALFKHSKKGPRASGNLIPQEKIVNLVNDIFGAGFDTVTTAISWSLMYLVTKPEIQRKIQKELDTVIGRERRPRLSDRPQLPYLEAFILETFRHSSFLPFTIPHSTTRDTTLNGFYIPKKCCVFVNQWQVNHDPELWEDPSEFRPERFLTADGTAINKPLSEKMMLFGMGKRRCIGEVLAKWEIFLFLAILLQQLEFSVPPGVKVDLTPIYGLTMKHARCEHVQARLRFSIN", "assay": "Inhibition of CYP1A2 in human liver microsomes using phenacetin as substrate incubated for 20 mins by UPLC-MS/MS analysis", "type": "ADME, Microsome"}, "[5]": {"assay": "Drug concentration in Wistar rat plasma at 10 mg/kg, po measured for 10 mins by UPLC-MS/MS analysis", "type": "ADME, organism-based"}, "[6]": {"assay": "AUC in Wistar rat at 1 mg/kg, iv by UPLC-MS/MS analysis", "type": "ADME, organism-based", "parameters": "dose 1 mg/kg, route iv", "settings": "in vivo"}, "[7]": {"assay": "Tmax in Wistar rat at 1 mg/kg, iv by UPLC-MS/MS analysis", "type": "ADME, organism-based", "settings": "in vivo"}, "[8]": {"assay": "Ratio AUC in Wistar rat brain to plasma at 10 mg/kg, po measured for 10 mins by UPLC-MS/MS analysis", "type": "ADME, organism-based", "settings": "brain and plasma, read-out: Ratio AUC"}, "[9]": {"assay": "Half life in Wistar rat at 1 mg/kg, iv by UPLC-MS/MS analysis", "type": "ADME, organism-based", "settings": "in vivo"}, "[10]": {"target": "Sigma intracellular receptor 2 (Homo sapiens, UniProt Q5BJF2)", "sequence (Q5BJF2 whole entry)": "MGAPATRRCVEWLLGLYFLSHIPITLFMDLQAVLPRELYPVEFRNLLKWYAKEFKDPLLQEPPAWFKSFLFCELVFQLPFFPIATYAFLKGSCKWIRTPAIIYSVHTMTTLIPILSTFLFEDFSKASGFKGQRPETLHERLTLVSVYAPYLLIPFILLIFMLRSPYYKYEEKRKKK", "assay": "Displacement of [3H]-1,3-di-O-tolylguanidine from human sigma 2 receptor/TMEM97 transfected in sigma 1 receptor knockout HEK293 cell membranes assessed as inhibition constant measured after 120 mins by microbeta scintillation counting analysis", "parameters": "species or system Cell membrane"}, "[11]": {"assay": "Lipophilicity, logD of the compound", "type": "physicochemical", "settings": "octanol/water"}, "[12]": {"assay": "Solubility of the compound at pH 7.4", "type": "physicochemical", "settings": "buffer"}, "[13]": {"assay": "Cmax in Wistar rat at 1 mg/kg, iv by UPLC-MS/MS analysis", "type": "ADME, organism-based", "parameters": "dose 1 mg/kg, route iv", "settings": "in vivo"}, "[14]": {"assay": "Metabolic stability in human liver microsome assessed as intrinsic clearance incubated upto 60 mins in presence of NADPH regenerating system by UPLC-MS/MS analysis", "type": "ADME", "settings": "liver microsomes, read-out: CLH"}, "[15]": {"assay": "Metabolic stability in human liver microsome assessed as parent compound remaining at 1 uM measured after 1 hr in presence of NADPH regenerating system by UPLC-MS/MS analysis", "type": "ADME", "settings": "liver microsomes, read-out: Stability"}, "[16]": {"assay": "Metabolic stability in rat liver microsome assessed as intrinsic clearance incubated upto 60 mins in presence of NADPH regenerating system by UPLC-MS/MS analysis", "type": "ADME", "settings": "liver microsomes, read-out: CLH"}, "[17]": {"assay": "Oral bioavailability in Wistar rat at 10 mg/kg by UPLC-MS/MS analysis", "type": "ADME, organism-based", "settings": "in vivo"}, "Cytochrome P450 2C9": {"target": "Cytochrome P450 2C9 (Homo sapiens, UniProt P11712)", "sequence (P11712 whole entry)": "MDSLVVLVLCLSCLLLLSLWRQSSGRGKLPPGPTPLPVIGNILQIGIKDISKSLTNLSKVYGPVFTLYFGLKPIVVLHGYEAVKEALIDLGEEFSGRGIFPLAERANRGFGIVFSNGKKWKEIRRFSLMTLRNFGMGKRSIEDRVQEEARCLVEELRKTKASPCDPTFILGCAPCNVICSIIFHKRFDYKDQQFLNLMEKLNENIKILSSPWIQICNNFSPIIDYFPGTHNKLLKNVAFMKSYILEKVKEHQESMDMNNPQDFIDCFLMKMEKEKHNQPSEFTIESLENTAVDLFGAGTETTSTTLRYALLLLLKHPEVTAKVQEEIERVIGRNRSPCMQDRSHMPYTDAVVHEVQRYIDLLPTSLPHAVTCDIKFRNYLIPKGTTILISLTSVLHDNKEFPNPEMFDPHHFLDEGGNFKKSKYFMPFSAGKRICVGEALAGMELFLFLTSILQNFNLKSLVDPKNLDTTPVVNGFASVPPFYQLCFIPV", "assay": "Inhibition of CYP2C9 in human liver microsomes using tolbutamide as substrate incubated for 20 mins by UPLC-MS/MS analysis", "type": "ADME, Microsome"}, "[18]": {"target": "Sigma non-opioid intracellular receptor 1 (Homo sapiens, UniProt Q99720)", "sequence (Q99720 whole entry)": "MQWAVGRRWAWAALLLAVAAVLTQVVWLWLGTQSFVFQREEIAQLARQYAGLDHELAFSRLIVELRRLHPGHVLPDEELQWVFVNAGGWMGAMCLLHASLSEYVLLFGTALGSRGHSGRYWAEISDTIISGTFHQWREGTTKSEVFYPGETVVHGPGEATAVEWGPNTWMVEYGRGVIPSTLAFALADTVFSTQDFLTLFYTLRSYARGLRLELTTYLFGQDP", "assay": "Displacement of [3H]-(+)-pentazocine from human sigma1 receptor transfected in HEK293 cell membranes assessed as inhibition constant incubated for 120 mins in presence of haloperidol by microbeta scintillation counter analysis", "parameters": "species or system Cell membrane"}, "[19]": {"assay": "Volume of distribution at steady state in Wistar rat at 1 mg/kg, iv by UPLC-MS/MS analysis", "type": "ADME, organism-based", "settings": "in vivo, read-out: Vdss"}, "[20]": {"assay": "Lipophilicity, logP of compound", "type": "physicochemical", "settings": "octanol/water"}, "[21]": {"assay": "Clearance in Wistar rat at 1 mg/kg, iv by UPLC-MS/MS analysis", "type": "ADME, organism-based", "settings": "in vivo"}, "Cytochrome P450 2C19": {"target": "Cytochrome P450 2C19 (Homo sapiens, UniProt P33261)", "sequence (P33261 whole entry)": "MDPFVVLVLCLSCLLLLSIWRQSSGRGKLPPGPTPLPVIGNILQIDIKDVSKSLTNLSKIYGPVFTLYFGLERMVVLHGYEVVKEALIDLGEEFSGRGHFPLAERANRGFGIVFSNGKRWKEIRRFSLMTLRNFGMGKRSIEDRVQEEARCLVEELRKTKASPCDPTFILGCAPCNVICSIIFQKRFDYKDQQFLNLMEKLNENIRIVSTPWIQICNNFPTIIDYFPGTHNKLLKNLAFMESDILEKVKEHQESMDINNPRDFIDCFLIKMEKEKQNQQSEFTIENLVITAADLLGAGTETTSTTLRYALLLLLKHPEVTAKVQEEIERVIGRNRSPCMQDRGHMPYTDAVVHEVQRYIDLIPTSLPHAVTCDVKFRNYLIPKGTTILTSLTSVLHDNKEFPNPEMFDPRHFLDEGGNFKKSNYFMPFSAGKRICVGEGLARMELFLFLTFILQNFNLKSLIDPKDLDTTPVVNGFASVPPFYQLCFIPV", "assay": "Inhibition of CYP2C19 in human liver microsomes using S mephenytoin as substrate incubated for 20 mins by UPLC-MS/MS analysis", "type": "ADME, Microsome"}, "[22]": {"assay": "Tmax in Wistar rat at 10 mg/kg, po by UPLC-MS/MS analysis", "type": "ADME, organism-based", "settings": "in vivo"}, "[23]": {"assay": "Metabolic stability in mouse liver microsome assessed as intrinsic clearance incubated upto 60 mins in presence of NADPH regenerating system by UPLC-MS/MS analysis", "type": "ADME", "settings": "liver microsomes, read-out: CLH"}, "[24]": {"assay": "AUC in Wistar rat at 10 mg/kg, po by UPLC-MS/MS analysis", "type": "ADME, organism-based", "parameters": "dose 10 mg/kg, route po", "settings": "in vivo"}, "[25]": {"assay": "Dissociation constant, pKa of the compound", "type": "physicochemical"}, "[26]": {"assay": "Metabolic stability in rat liver microsome assessed as parent compound remaining at 1 uM measured after 1 hr in presence of NADPH regenerating system by UPLC-MS/MS analysis", "type": "ADME", "settings": "liver microsomes, read-out: Stability"}, "Cytochrome P450 3A4": {"target": "Cytochrome P450 3A4 (Homo sapiens, UniProt P08684)", "sequence (P08684 whole entry)": "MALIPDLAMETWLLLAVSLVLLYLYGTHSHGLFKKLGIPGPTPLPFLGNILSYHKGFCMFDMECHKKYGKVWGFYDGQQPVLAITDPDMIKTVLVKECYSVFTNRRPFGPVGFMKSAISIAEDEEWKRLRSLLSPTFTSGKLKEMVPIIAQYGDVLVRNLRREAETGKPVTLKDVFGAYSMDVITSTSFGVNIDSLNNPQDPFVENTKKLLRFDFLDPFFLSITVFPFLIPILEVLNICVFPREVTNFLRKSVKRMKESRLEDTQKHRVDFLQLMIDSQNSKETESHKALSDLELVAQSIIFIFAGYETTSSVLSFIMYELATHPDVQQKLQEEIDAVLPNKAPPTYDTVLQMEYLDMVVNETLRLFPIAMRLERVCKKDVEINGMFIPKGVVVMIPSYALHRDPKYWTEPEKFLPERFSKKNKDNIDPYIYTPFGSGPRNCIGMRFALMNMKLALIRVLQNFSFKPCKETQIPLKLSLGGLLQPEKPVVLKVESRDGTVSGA", "assay": "Inhibition of CYP3A4 in human liver microsomes using testosterone as substrate incubated for 20 mins by UPLC-MS/MS analysis", "type": "ADME, Microsome"}, "[27]": {"target": "Voltage-gated inwardly rectifying potassium channel KCNH2 (Homo sapiens, UniProt Q12809)", "sequence (Q12809 whole entry)": "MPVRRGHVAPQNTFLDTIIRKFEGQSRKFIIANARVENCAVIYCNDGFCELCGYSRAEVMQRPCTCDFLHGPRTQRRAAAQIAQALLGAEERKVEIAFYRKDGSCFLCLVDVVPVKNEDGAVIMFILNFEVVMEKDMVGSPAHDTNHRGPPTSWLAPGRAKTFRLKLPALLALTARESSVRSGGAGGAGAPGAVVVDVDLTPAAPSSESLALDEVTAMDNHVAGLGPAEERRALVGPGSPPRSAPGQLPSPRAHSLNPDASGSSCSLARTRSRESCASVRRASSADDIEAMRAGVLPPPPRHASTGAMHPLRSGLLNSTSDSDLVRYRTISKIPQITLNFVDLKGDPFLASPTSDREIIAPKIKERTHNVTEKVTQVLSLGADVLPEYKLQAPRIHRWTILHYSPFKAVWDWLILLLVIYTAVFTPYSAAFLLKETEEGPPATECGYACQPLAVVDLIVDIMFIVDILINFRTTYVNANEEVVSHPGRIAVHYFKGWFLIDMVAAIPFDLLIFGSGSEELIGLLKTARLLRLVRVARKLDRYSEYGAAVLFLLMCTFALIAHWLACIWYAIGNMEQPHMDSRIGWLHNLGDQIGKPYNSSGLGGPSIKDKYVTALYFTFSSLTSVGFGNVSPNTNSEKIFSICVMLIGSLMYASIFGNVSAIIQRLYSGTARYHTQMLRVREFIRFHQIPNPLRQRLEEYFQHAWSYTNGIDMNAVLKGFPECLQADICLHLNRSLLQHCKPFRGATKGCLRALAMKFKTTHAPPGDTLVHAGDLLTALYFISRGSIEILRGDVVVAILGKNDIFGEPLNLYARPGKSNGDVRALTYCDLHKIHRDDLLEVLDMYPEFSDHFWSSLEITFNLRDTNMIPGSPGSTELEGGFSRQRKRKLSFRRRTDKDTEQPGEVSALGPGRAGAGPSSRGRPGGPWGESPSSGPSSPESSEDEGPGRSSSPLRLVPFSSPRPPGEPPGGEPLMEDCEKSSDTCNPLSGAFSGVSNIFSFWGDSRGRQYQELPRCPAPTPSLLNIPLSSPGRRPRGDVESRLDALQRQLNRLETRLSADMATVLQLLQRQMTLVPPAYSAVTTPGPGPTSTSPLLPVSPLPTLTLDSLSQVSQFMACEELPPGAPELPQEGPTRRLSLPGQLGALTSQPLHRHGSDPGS", "assay": "Inhibition of hERG expressed in CHO cells at holding potential of -80 mV measured for 15 seconds by whole cell patch clamp assay", "type": "toxicity, cell-based"}, "Cytochrome P450 2D6": {"target": "Cytochrome P450 2D6 (Homo sapiens, UniProt P10635)", "sequence (P10635 whole entry)": "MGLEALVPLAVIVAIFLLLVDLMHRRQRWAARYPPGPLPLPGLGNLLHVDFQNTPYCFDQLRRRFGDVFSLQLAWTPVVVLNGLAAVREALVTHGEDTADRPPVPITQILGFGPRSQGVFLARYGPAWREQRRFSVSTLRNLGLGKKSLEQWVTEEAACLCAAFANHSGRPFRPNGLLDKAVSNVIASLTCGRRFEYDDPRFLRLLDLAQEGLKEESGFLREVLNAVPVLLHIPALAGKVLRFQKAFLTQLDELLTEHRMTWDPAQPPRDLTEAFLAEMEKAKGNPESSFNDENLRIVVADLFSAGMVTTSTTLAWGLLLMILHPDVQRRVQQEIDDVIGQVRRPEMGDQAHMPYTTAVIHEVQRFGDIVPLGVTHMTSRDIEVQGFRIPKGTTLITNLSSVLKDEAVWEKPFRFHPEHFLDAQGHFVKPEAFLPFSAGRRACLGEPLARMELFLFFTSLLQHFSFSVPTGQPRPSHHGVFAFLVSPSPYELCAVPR", "assay": "Inhibition of CYP2D6 in human liver microsomes using bufuralol as substrate incubated for 20 mins by UPLC-MS/MS analysis", "type": "ADME, Microsome"}},
  "note": "Activity calls are given as the source filed them. No cut-off for these calls is given here.",
  "data": [
    {"molecule": "CCc1ncc(-c2cc(C)no2)c(C2CCN(CC(=O)N3CCOCC3)CC2)n1", "values": [
      {"measurement": "Cmax", "setting": "[1]", "result": 900, "unit": "ng/mL"},
      {"measurement": "Ratio Ki", "setting": "Homo sapiens", "result": 137},
      {"measurement": "Activity", "setting": "Neuron", "result": "Active"},
      {"measurement": "remaining at 1 h, 1 µM", "setting": "[2]", "result": 93, "unit": "%"},
      {"measurement": "Papp A→B at 2 h", "setting": "[3]", "result": 17.7, "unit": "×10⁻⁶ cm/s"},
      {"measurement": "Activity", "setting": "Rattus norvegicus", "result": "Active"},
      {"measurement": "Ratio", "setting": "[4]", "result": 1.2},
      {"measurement": "IC50", "setting": "Cytochrome P450 1A2", "result": "> 900", "unit": "µM"},
      {"measurement": "concentration at 10 min", "setting": "[5]", "result": 250, "unit": "ng/g"},
      {"measurement": "AUC", "setting": "[6]", "result": 593, "unit": "ng·h/mL"},
      {"measurement": "Tmax", "setting": "[7]", "result": 18, "unit": "min"},
      {"measurement": "Kp at 10 min", "setting": "[8]", "result": 0.41},
      {"measurement": "half-life", "setting": "[9]", "result": 60, "unit": "min"},
      {"measurement": "Ki", "setting": "[10]", "result": 13, "unit": "nM"},
      {"measurement": "logD", "setting": "[11]", "result": 1.4},
      {"measurement": "solubility", "setting": "[12]", "result": 7280, "unit": "µg/mL"},
      {"measurement": "Cmax", "setting": "[13]", "result": 2020, "unit": "ng/mL"},
      {"measurement": "microsomal CLint", "setting": "[14]", "result": 1.6, "unit": "µL/min/mg"},
      {"measurement": "remaining at 1 h, 1 µM", "setting": "[15]", "result": 93, "unit": "%"},
      {"measurement": "microsomal CLint", "setting": "[16]", "result": 1.5, "unit": "µL/min/mg"},
      {"measurement": "bioavailability", "setting": "[17]", "result": 51, "unit": "%"},
      {"measurement": "IC50", "setting": "Cytochrome P450 2C9", "result": 600, "unit": "µM"},
      {"measurement": "Ki", "setting": "[18]", "result": 1780, "unit": "nM"},
      {"measurement": "Vd", "setting": "[19]", "result": 0.8, "unit": "L/kg"},
      {"measurement": "logP", "setting": "[20]", "result": 1.7},
      {"measurement": "clearance", "setting": "[21]", "result": 28.3, "unit": "mL/min/kg"},
      {"measurement": "IC50", "setting": "Cytochrome P450 2C19", "result": "> 900", "unit": "µM"},
      {"measurement": "Tmax", "setting": "[22]", "result": 48, "unit": "min"},
      {"measurement": "microsomal CLint", "setting": "[23]", "result": 2.8, "unit": "µL/min/mg"},
      {"measurement": "AUC", "setting": "[24]", "result": 3000, "unit": "ng·h/mL"},
      {"measurement": "pKa", "setting": "[25]", "result": 7.4},
      {"measurement": "remaining at 1 h, 1 µM", "setting": "[26]", "result": 95, "unit": "%"},
      {"measurement": "IC50", "setting": "Cytochrome P450 3A4", "result": "> 900", "unit": "µM"},
      {"measurement": "IC50", "setting": "[27]", "result": "> 10", "unit": "µM"},
      {"measurement": "IC50", "setting": "Cytochrome P450 2D6", "result": 133, "unit": "µM"}
    ]}
  ]
}
